According to PubChem BioAssay AID2202554 (NIEHS Division of Translational Toxicology (DTT)):
Results filed as inconclusive are left out. Active and inactive are the calls of the source. The rule behind the calls is not given here.

What follows are molecules tested on S. typhimurium/E. coli reverse mutation, colony counts (assay: Bacterial reverse mutation test (aka Ames test) summary data).
Procedure, shortened: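 Revertant colony counts on plates, compared with untreated controls, after about two days of growth. Exposure with or without liver S9 (rat/hamster/mouse), dose range per strain, 20-min 37° C preincubation or direct plate incorporation. Strains: his⁻ Salmonella, trp⁻ E. coli WP2 uvrA pKM101.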

Compound | outcome
COc1cc(-c2ccc(N=Nc3c(S(=O)(=O)O)cc4cc(S(=O)(=O)O)cc(N)c4c3O)c(OC)c2)ccc1N=Nc1c(S(=O)(=O)O)cc2cc(S(=O)(=O)O)cc(N)c2c1O | inactive; negative
Nc1ccc(S(=O)(=O)Nc2nccs2)cc1 | inactive; negative
Cc1cc(C)c(N=Nc2c(O)c(S(=O)(=O)O)cc3cc(S(=O)(=O)O)ccc23)cc1C | inactive; negative
Nc1cc(Cl)c(N)c(Cl)c1 | active; positive
c1ccncc1 | inactive; negative
CC(=O)NNc1ccccc1 | active; positive
Cc1noc(NS(=O)(=O)c2ccc(N)cc2)c1C | inactive; negative
CCCCCCCCC(=O)O | inactive; negative
Nc1c(Br)cc([N+](=O)[O-])cc1[N+](=O)[O-] | active; positive
Oc1cccc(O)c1 | inactive; negative
Cc1cc(O)c2c(c1)C(=O)c1cccc(O)c1C2=O | active; weakly positive
CCCCOC(=O)c1ccccc1N | inactive; negative
OCC(CBr)(CBr)CBr | active; positive
O=[N+]([O-])c1c2ccccc2cc2ccccc12 | active; positive
ClC(Cl)(Cl)Cl | inactive; negative
OCc1ccccc1 | inactive; negative
c1cc2c3c(cccc3c1)CC2 | inactive; negative
N#CCc1ccccc1 | inactive; negative
OC(O)C(Cl)(Cl)Cl | active; positive
CCCCCCC[CH2][Sn]1([CH2]CCCCCCC)[O]C(=O)C=CC(=O)[O]1 | inactive; negative
CCCCOCCOP(=O)(OCCOCCCC)OCCOCCCC | inactive; negative
O=Cc1cccc(Br)c1 | inactive; negative
CC(=O)O[C@H](CC(=O)[O-])C[N+](C)(C)C | inactive; negative
CCC(C)(C)c1ccc(O)cc1 | inactive; negative
O=CNc1ccccc1 | inactive; negative
CN(C)c1ccc(C2(c3ccc(N(C)C)cc3)OC(=O)c3cc(N(C)C)ccc32)cc1 | inactive; negative

Compound | outcome
NCc1ccc(CN)cc1 | inactive; negative
Cc1ccc([N+](=O)[O-])c(N)c1 | inactive; negative
C=C(C)C(=O)OCC | inactive; negative
O=C1c2ccccc2-c2ccc3c4c(ccc1c24)-c1ccccc1C3=O | inactive; negative
CC[C@H](CC[C@@H](C)[C@H]1CC[C@H]2[C@@H]3CC=C4C[C@@H](O)CC[C@]4(C)[C@H]3CC[C@]12C)C(C)C | inactive; negative
CC(=O)OCC(COC(C)=O)OC(C)=O | inactive; negative
Cc1cc(C(C)(C)C)c(O)c(C(C)(C)C)c1 | inactive; negative
CC(N)CN (stereo not given) | inactive; negative
CCC(O)CN (stereo not given) | inactive; negative
CCc1cccc(C)c1N(C(=O)CCl)C(C)COC (stereo not given) | inactive; negative
Nc1cc(Cl)ccc1Cl | inactive; negative
Cc1c(N)cccc1Cl | inactive; negative
Nc1ccc(Cl)c(N)c1 | active; positive
COC(=O)C1CCC(C)CC1 (stereo not given) | inactive; negative
Cc1cc(C)cc(O)c1 | inactive; negative
O=S(=O)(O)C(F)(F)C(F)(F)C(F)(F)C(F)(F)C(F)(F)C(F)(F)C(F)(F)C(F)(F)F | inactive; negative
COc1cc(OC)c(OC)cc1C=O | inactive; negative
CC(=O)Nc1ccc(N=Nc2cc(C)ccc2O)cc1 | active; positive
C=C(C#N)C(=O)OC | active; positive
CCC(C)C(C)CO (stereo not given) | inactive; negative
C=CCN=C=S | active; weakly positive
c1ccc2n[nH]nc2c1 | active; weakly positive
[O-][Br+2]([O-])O | active; positive
CCCCC(CC)CNCC(CC)CCCC (stereo not given) | inactive; negative
CC(=O)Nc1ccccc1C | active; positive
NC(=O)c1cccc([N+](=O)[O-])c1 | active; positive

Compound | outcome
C[Si](C)(C)O[Si](C)(O[Si](C)(C)C)O[Si](C)(C)C | inactive; negative
Cc1ccc2cc3c(ccc4ccccc43)c3c2c1CC3 | active; positive
O=[N+]([O-])c1cc(C(F)(F)F)cc([N+](=O)[O-])c1Cl | inactive; negative
CCOCCO | inactive; negative
N#CSCSC#N | inactive; negative
CC(C)(C)C(=O)C1C(=O)c2ccccc2C1=O | inactive; negative
CCOCCOCCO | inactive; negative
CC(=O)c1ccncc1 | inactive; negative
CC=NO | active; positive
Nc1ccccc1S(=O)(=O)O | active; weakly positive
CCn1c2ccccc2c2cc(N)ccc21 | active; positive
Cc1c(N)cccc1N | active; positive
CN1C[C@H](C(=O)N[C@]2(C)O[C@@]3(O)[C@@H]4CCCN4C(=O)[C@H](Cc4ccccc4)N3C2=O)C=C2c3cccc4[nH]cc(c34)C[C@H]21 | inactive; negative
Nc1ccc(Br)cc1 | inactive; negative
CCC1NC(=O)c2cc(S(N)(=O)=O)c(Cl)cc2N1 (stereo not given) | inactive; negative
CBr | active; positive
CC(C)CC(C)N (stereo not given) | inactive; negative
Clc1cc(Cl)c(Cl)c(Cl)c1Cl | inactive; negative
CC1=C(/C=C/C(C)=C/C=C/C(C)=C/CO)C(C)(C)CCC1 | active; weakly positive
CNc1ccc2nc3ccc(=[N+](C)C)cc-3sc2c1 | active; positive
Cc1cccc([N+](=O)[O-])c1C | active; positive
C=C(C)C1CC=C(C)C(OC(C)=O)C1 (stereo not given) | inactive; negative
Cc1ccc2c(c1N)C(=O)c1ccccc1C2=O | active; positive
BrCC1CO1 (stereo not given) | active; positive
CC(=O)OC1CC(C)OC(C)O1 (stereo not given) | active; positive
[O-]/[N+](=N\O)c1ccccc1 | active; positive

Compound | outcome
O=C(Nc1cccc2c(=O)c3c(ccc4c5cc(NC(=O)c6ccccc6)c6c(=O)c7ccccc7c(=O)c6c5[nH]c43)c(=O)c12)c1ccccc1 | inactive; negative
N#[N+]c1ccc2c(S(=O)(=O)[O-])cccc2c1O | active; positive
COc1cc2c(cc1OC)[C@@]13CCN4CC5=CCO[C@H]6CC(=O)N2[C@H]1[C@H]6[C@H]5C[C@H]43 | inactive; negative
CN(C)C | inactive; negative
COc1cccc(N)c1 | active; positive
Cc1c(O)cccc1O | inactive; negative
COc1ccc(N=[N+]([O-])c2ccc(OC)cc2)cc1 | active; positive
CCCCOC(=O)COc1cc(Cl)c(Cl)cc1Cl | inactive; negative
O=C(O)c1ccccc1C(=O)O | inactive; negative
NC(=O)NC(N)=O | active; positive
Nc1cc(C(=O)O)c(O)c(S(=O)(=O)O)c1 | inactive; negative
C(=C/c1ccccc1)/c1ccccc1 | inactive; negative
Cc1cccc2c1ccc1ccccc12 | active; positive
ClC(Cl)=C(Cl)C(Cl)=C(Cl)Cl | inactive; negative
COC(=O)CCCC(=O)OC | inactive; negative
CCC(C)=O | inactive; negative
CC(Cl)(Cl)[N+](=O)[O-] | active; positive
FCC1CO1 (stereo not given) | active; positive
CC=O | inactive; negative
O=[N+]([O-])C(Br)(Br)Br | active; weakly positive
C(=C\c1ccccc1)/c1ccccc1 | inactive; negative
CCOC(C=C(C)CCC=C(C)C)OCC | active; positive
O=c1[nH]cnc2[nH]ncc12 | active; weakly positive
CCCCNS(=O)(=O)c1ccccc1 | inactive; negative
ClNc1nc(NCl)nc(NCl)n1 | inactive; negative
COc1c2occc2cc2ccc(=O)oc12 | active; positive

Compound | outcome
OCC=CCO | active; positive
O=P(OCCCl)(OCCCl)OCCCl | inactive; negative
O=P(Oc1ccccc1)(Oc1ccccc1)Oc1ccccc1 | inactive; negative
CCCC=C(C=O)CC | inactive; negative
NCCNc1cccc2ccccc12 | active; positive
CC1=CC(=C(c2ccc(N)cc2)c2ccc(N)cc2)C=CC1=N | active; positive
NC=O | inactive; negative
Cc1ccc(N)cc1N | active; positive
Cc1ccc2cccnc2c1 | active; positive
C(CCOCC1CO1)COCC1CO1 (stereo not given) | active; positive
O=C(O)c1cc(O)c2c(c1)C(=O)c1cccc(O)c1C2=O | active; positive
CC(=O)CC(C)(C)O | inactive; negative
Cc1ccc(S(=O)(=O)NC2CCCCC2)cc1 | inactive; negative
ClCCl | active; positive
O=C(O)c1cc(=O)[nH]c(=O)[nH]1 | inactive; negative
[Cl-].[Cl-].[Hg+2] | inactive; negative
CCOc1cccc(N)c1 | active; weakly positive
O=C1OC2(c3ccccc31)c1cc(Br)c(O)c(Br)c1Oc1c2cc(Br)c(O)c1Br | active; positive
CCn1cc[n+](C)c1 | inactive; negative
Nc1ccc2c(c1)C(=O)c1ccccc1C2=O | active; positive
CCCCCCCCCCCCCC(=O)O | inactive; negative
Nc1ccc([N+](=O)[O-])cc1N | active; positive
C=CC(=C)C | inactive; negative
CC(=O)C1(C)CC2=C(CCCC2(C)C)CC1C (stereo not given) | inactive; negative
CCOC(=O)CC(C)O (stereo not given) | inactive; negative
CC(=O)OC(C(=O)c1ccccc1)c1ccccc1 (stereo not given) | inactive; negative
